System: L-SIGN alleles: L-SIGN-4, -5, -7 and -9
Assay: Inhibition of L-SIGN-mediated trans-infection of Hep3B cells by HCVpp
Format: cell-based, human
Conditions: mannan 20 μg/ml
Procedure: FIG. 9. Inhibition of trans-infection with agents to the CRD of L-SIGN. HeLa or HeLa-SIGN transfectants stably expressing the indicated polymorphic forms of L-SIGN were incubated with mannan (20 μg/ml), anti-CRD mAbs (120604 and 120612, 10 μg/ml), or IgG2a isotype-control IgG (10 μg/ml) prior to addition to HCVpp. Cells were incubated an additional 2 h, washed and combined with Hep3B cells. Cultures were maintained for 48 h prior to lysis and measurement of luciferase activity. The data represent the percent of trans-infection relative to that observed in the absence of inhibitor. The values were calculated as (net RLU in the presence of inhibitor)/(net RLU in the absence of inhibitor)×100, where net RLU represents the difference in RLU values observed between transfected and parental HeLa cells. Negative values are omitted for clarity. The data represent the average of 3 independent measurements. […]
Parental HeLa cells and HeLa-SIGN transfectants (2×10^4) were incubated with 200 μl of viral supernatant for 2 h at 37° C. […] Luciferase activity was measured in cell lysates using the Luciferase Assay System (Promega, Madison, Wis.) according to the manufacturer's instructions. […] Data were analyzed for statistical significance using 2-sided t-tests and a significance level of P<0.05 unless otherwise indicated. […]

L-SIGN alleles: L-SIGN-4, -5, -7 and -9, sequence (Q9H2X3 250-399 limits assumed): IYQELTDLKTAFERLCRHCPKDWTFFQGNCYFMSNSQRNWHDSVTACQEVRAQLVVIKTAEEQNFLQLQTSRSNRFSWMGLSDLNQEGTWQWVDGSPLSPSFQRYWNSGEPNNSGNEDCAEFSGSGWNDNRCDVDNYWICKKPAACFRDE

mannan
average level of inhibition of trans-infection across the different isoforms: 77% | level of trans-infection inhibited (range over L-SIGN-4, -5, -7 and -9) (30 min before HCVpp, Hep3B co-culture 48 h, luciferase): 47-95%

From patent US20060292151A1, “L-SIGN polymorphisms and methods involving use of same” (priority 2004, published 2006)
